# Results reported in US20070010671A1, “Novel quinazoline derivatives and methods of treatment related to the use thereof” (priority 2003, published 2007).
# Biological target: MCH receptor (Homo sapiens, UniProt Q99705)
# Assay: High throughput functional screening FLIPR/FDSS6000: inhibition of MCH-evoked intracellular Ca2+ changes
# Assay type: cell-based
# Conditions: class by percent of control at 10^-7 M or IC50
# How it was run: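 Seed cells the day before, then load them with Fluo4-AM for one hour at 37° C and wash in HEPES-buffered HBSS, pH 7.4. Add compound for 3 min, then stimulate with 50 nM MCH. Monitor the calcium transient for 290 s.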
row,Compound,class
1,CN(C)c1nc(N[C@H]2CC[C@@H](CNC(=S)NCC3CCCO3)CC2)nc2ccccc12 (relative stereo) [compound 620],2 (Class 2: The value of percent of control at 10^−7 M was from 40% to 60% or the value of IC50 was from 50 nM to 200 nM.)
2,CN(C)c1nc(N[C@H]2CC[C@@H](CNC(=O)Nc3ccc(F)c(C(F)(F)F)c3)CC2)nc2ccccc12 [compound 552],3 (Class 3: The value of percent of control at 10^−7 M was more than 60% or the value of IC50 was more than 200 nM.)
3,CN(C)c1nc(N[C@H]2CC[C@@H](CNC(=O)Nc3cc(Cl)c(Cl)cc3Cl)CC2)nc2ccccc12 [compound 474],3 (Class 3: The value of percent of control at 10^−7 M was more than 60% or the value of IC50 was more than 200 nM.)
4,"CN(C)c1nc(N[C@H]2CC[C@@H](CNC(=O)Nc3c(Cl)c(Cl)cc(Cl)c3Cl)CC2)nc2ccccc12 [compound 472, N-[(cis-4-{[4-(dimethylamino)quinazolin-2-yl]amino}cyclohexyl)methyl]-N′-(2,3,5,6-tetrachlorophenyl)urea]",2 (Class 2: The value of percent of control at 10^−7 M was from 40% to 60% or the value of IC50 was from 50 nM to 200 nM.)
5,"CN(C)c1nc(N[C@H]2CC[C@@H](CNC(=O)Nc3c(F)cccc3F)CC2)nc2ccccc12 [compound 426, N-(2,6-difluorophenyl)-N′-[(cis-4-{[4-(dimethylamino)quinazolin-2-yl]amino}cyclohexyl)methyl]urea]",2 (Class 2: The value of percent of control at 10^−7 M was from 40% to 60% or the value of IC50 was from 50 nM to 200 nM.)
6,CC(C)c1cccc(C(C)C)c1NC(=S)NC[C@H]1CC[C@@H](Nc2nc(N(C)C)c3ccccc3n2)CC1 [compound 675],2 (Class 2: The value of percent of control at 10^−7 M was from 40% to 60% or the value of IC50 was from 50 nM to 200 nM.)
7,"COc1ccc(NC(=S)N[C@H]2CC[C@@H](Nc3nc(N(C)C)c4ccccc4n3)CC2)c(C)c1 [compound 320, N-(cis-4-{[4-(dimethylamino)quinazolin-2-yl]amino}cyclohexyl)-N′-(4-methoxy-2-methylphenyl)thiourea]",1 (Class 1: The value of percent of control at 10^−7 M was less than 40% or the value of IC50 was less than 50 nM.)
8,Cc1ccc2nc(-c3ccc(NC(=O)NC[C@H]4CC[C@@H](Nc5nc(N(C)C)c6ccccc6n5)CC4)cc3)sc2c1 [compound 771],3 (Class 3: The value of percent of control at 10^−7 M was more than 60% or the value of IC50 was more than 200 nM.)
9,"Cc1cc(Br)cc(C)c1NC(=O)NC[C@H]1CC[C@@H](Nc2nc(N(C)C)c3ccccc3n2)CC1 [compound 753, N-(4-bromo-2,6-dimethylphenyl)-N′-[(cis-4-{[4-(dimethylamino)quinazolin-2-yl]amino}cyclohexyl)methyl]urea]",1 (Class 1: The value of percent of control at 10^−7 M was less than 40% or the value of IC50 was less than 50 nM.)
10,Cc1ccc(Cl)cc1NC(=O)NC[C@H]1CC[C@@H](Nc2nc(N(C)C)c3ccccc3n2)CC1 [compound 565],2 (Class 2: The value of percent of control at 10^−7 M was from 40% to 60% or the value of IC50 was from 50 nM to 200 nM.)
11,CCCCCCNC(=S)NC[C@H]1CC[C@@H](Nc2nc(N(C)C)c3ccccc3n2)CC1 [compound 600],3 (Class 3: The value of percent of control at 10^−7 M was more than 60% or the value of IC50 was more than 200 nM.)
12,"COc1cccc(NC(=O)NC[C@H]2CC[C@@H](Nc3nc(N(C)C)c4ccccc4n3)CC2)c1 [compound 447, N-[(cis-4-{[4-(dimethylamino)quinazolin-2-yl]amino}cyclohexyl)methyl]-N′-(3-methoxyphenyl)urea]",2 (Class 2: The value of percent of control at 10^−7 M was from 40% to 60% or the value of IC50 was from 50 nM to 200 nM.)
13,CC(NC(=S)NC[C@H]1CC[C@@H](Nc2nc(N(C)C)c3ccccc3n2)CC1)c1ccc(F)cc1 (relative stereo) [compound 697],2 (Class 2: The value of percent of control at 10^−7 M was from 40% to 60% or the value of IC50 was from 50 nM to 200 nM.)
14,"Cc1cc(Br)cc(C)c1NC(=S)N[C@H]1CC[C@@H](Nc2nc(N(C)C)c3ccccc3n2)CC1 [compound 266, N-(4-bromo-2,6-dimethylphenyl)-N′-(cis-4-{[4-(dimethylamino)quinazolin-2-yl]amino}cyclohexyl)thiourea]",1 (Class 1: The value of percent of control at 10^−7 M was less than 40% or the value of IC50 was less than 50 nM.)
15,"CN(C)c1nc(N[C@H]2CC[C@@H](NC(=S)Nc3ccc(Br)cc3OC(F)(F)F)CC2)nc2ccccc12 [compound 372, N-[4-bromo-2-(trifluoromethoxy)phenyl]-N′-(cis-4-{[4-(dimethylamino)quinazolin-2-yl]amino}cyclohexyl)thiourea]",1 (Class 1: The value of percent of control at 10^−7 M was less than 40% or the value of IC50 was less than 50 nM.)
16,"CN(C)c1nc(N[C@H]2CC[C@@H](CNC(=O)Nc3ccccc3C(C)(C)C)CC2)nc2ccccc12 [compound 516, N-(2-tert-butylphenyl)-N′-[(cis-4-{[4-(dimethylamino)quinazolin-2-yl]amino}cyclohexyl)methyl]urea]",1 (Class 1: The value of percent of control at 10^−7 M was less than 40% or the value of IC50 was less than 50 nM.)
17,CCc1cccc(C)c1NC(=S)NC[C@H]1CC[C@@H](Nc2nc(N(C)C)c3ccccc3n2)CC1 [compound 679],2 (Class 2: The value of percent of control at 10^−7 M was from 40% to 60% or the value of IC50 was from 50 nM to 200 nM.)
18,"Cc1noc(C)c1NC(=O)N[C@H]1CC[C@@H](Nc2nc(N(C)C)c3ccccc3n2)CC1 [compound 353, N-(cis-4-{[4-(dimethylamino)quinazolin-2-yl]amino}cyclohexyl)-N′-(3,5-dimethylisoxazol-4-yl)urea]",2 (Class 2: The value of percent of control at 10^−7 M was from 40% to 60% or the value of IC50 was from 50 nM to 200 nM.)
19,COc1ccc(Cl)cc1NC(=S)NC[C@H]1CC[C@@H](Nc2nc(N(C)C)c3ccccc3n2)CC1 [compound 706],2 (Class 2: The value of percent of control at 10^−7 M was from 40% to 60% or the value of IC50 was from 50 nM to 200 nM.)
20,Cc1cc(Br)ccc1NC(=S)NC[C@H]1CC[C@@H](Nc2nc(N(C)C)c3ccccc3n2)CC1 [compound 692],3 (Class 3: The value of percent of control at 10^−7 M was more than 60% or the value of IC50 was more than 200 nM.)
21,"CCOC(=O)[C@H](Cc1ccccc1)NC(=O)N[C@H]1CC[C@@H](Nc2nc(N(C)C)c3ccccc3n2)CC1 (relative stereo) [compound 336, ethyl N-{[(cis-4-{[4-(dimethylamino)quinazolin-2-yl]amino}cyclohexyl)amino]carbonyl}phenylalaninate]",1 (Class 1: The value of percent of control at 10^−7 M was less than 40% or the value of IC50 was less than 50 nM.)
22,CC(NC(=S)N[C@H]1CC[C@@H](Nc2nc(N(C)C)c3ccccc3n2)CC1)c1ccccc1 (relative stereo) [compound 283],2 (Class 2: The value of percent of control at 10^−7 M was from 40% to 60% or the value of IC50 was from 50 nM to 200 nM.)
23,"Cc1c(NC(=O)NC[C@H]2CC[C@@H](Nc3nc(N(C)C)c4ccccc4n3)CC2)cccc1[N+](=O)[O-] [compound 506, N-[(cis-4-{[4-(dimethylamino)quinazolin-2-yl]amino}cyclohexyl)methyl]-N′-(2-methyl-3-nitrophenyl)urea]",1 (Class 1: The value of percent of control at 10^−7 M was less than 40% or the value of IC50 was less than 50 nM.)
24,CSc1cccc(NC(=S)N[C@H]2CC[C@@H](Nc3nc(N(C)C)c4ccccc4n3)CC2)c1 [compound 257],3 (Class 3: The value of percent of control at 10^−7 M was more than 60% or the value of IC50 was more than 200 nM.)
25,"COc1ccc(CCNC(=S)NC[C@H]2CC[C@@H](Nc3nc(N(C)C)c4ccccc4n3)CC2)cc1OC [compound 665, N-[2-(3,4-dimethoxyphenyl)ethyl]-N′-[(cis-4-{[4-(dimethylamino)quinazolin-2-yl]amino}cyclohexyl)methyl]thiourea]",2 (Class 2: The value of percent of control at 10^−7 M was from 40% to 60% or the value of IC50 was from 50 nM to 200 nM.)
26,COc1ccccc1CNC(=S)NC[C@H]1CC[C@@H](Nc2nc(N(C)C)c3ccccc3n2)CC1 [compound 788],3 (Class 3: The value of percent of control at 10^−7 M was more than 60% or the value of IC50 was more than 200 nM.)

# Same assay, conditions: class by percent of control at 10^-7 M or by IC50; read-out: class
row,IC50,Compound
1,50 to 200 nM,CN(C)c1nc(N[C@H]2CC[C@@H](CNC(=O)OCc3ccccc3)CC2)nc2ccccc12 [compound 878]
2,> 200 nM,COC(=O)c1sccc1NC(=S)NC[C@H]1CC[C@@H](Nc2nc(N(C)C)c3ccccc3n2)CC1 [compound 802]
3,> 200 nM,CC(=O)c1cccc(NC(=S)N[C@H]2CC[C@@H](Nc3nc(N(C)C)c4ccccc4n3)CC2)c1 [compound 153]
4,< 50 nM,"COc1ccc(NC(=O)N[C@H]2CC[C@@H](Nc3nc(N(C)C)c4ccccc4n3)CC2)c(C)c1 [compound 827, N-(cis-4-{[4-(dimethylamino)quinazolin-2-yl]amino}cyclohexyl)-N′-(4-methoxy-2-methylphenyl)urea]"
5,50 to 200 nM,"CN(C)c1nc(N[C@H]2CC[C@@H](NC(=O)Nc3ccc(Cl)cc3Cl)CC2)nc2ccccc12 [compound 22, N-(2,4-dichlorophenyl)-N′-(cis-4-{[4-(dimethylamino)quinazolin-2-yl]amino}cyclohexyl)urea]"

# Same assay, conditions: class by percent of control at 10^−7 M or by IC50; read-out: class
row,IC50,Compound
1,50 to 200 nM,"N-(cis-4-{[4-(dimethylamino)quinazolin-2-yl]amino}cyclohexyl)-6-(3,4,5-trimethoxyphenoxy)nicotinamide [Example 1067]"
2,> 200 nM,"CN(C)c1nc(NC[C@@H]2CC[C@H](NC(=O)c3cccc(F)c3)C2)nc2ccccc12 [Example 1132, N-[(1S,3R)-3-({[4-(dimethylamino)quinazolin-2-yl]amino}methyl)cyclopentyl]-3-fluorobenzamide]"
